Patent US8258295B2, “Triazine derivatives, compositions containing such derivatives, and methods of treatment of cancer and autoimmune diseases using such derivatives” (Prometic Biosciences Inc., priority 2007, dated 2012)
Like-named read-outs stand apart in the source and are kept apart here.

Tests used:
TNFα production = test: LPS-induced TNFα production in J774A.1 cells (ELISA); format: cell-based; conditions: Mus musculus, J774.A1, 24 hr
Procedure: Effect of compounds on TNFα production was measured by ELISA using J774A.1 cells stimulated by LPS. J774A.1 cells were cultured in the presence or absence of LPS and compound. Cells were cultured for 24 hr at 37° C. and thereafter the supernatants were collected for the determination of the concentration of TNFα by ELISA as recommended by the manufacturer (BD Biosciences). Data was analyzed in Microsoft Excel software and the concentration of compound which inhibits 50% of TNFα production (IC50) was calculated using Prism software.

[1] = tested on: HUVEC (human umbilical vein endothelial cell); test: MTT cytotoxicity on HUVEC; format: cell-based
Procedure: This assay was performed to determine the effect of compounds of the present invention on cell cytotoxicity. Cells were incubated in presence or absence of compounds in their respective conditioned media. After 24 hr or 72 hr incubation, 50 μl of 3-(4,5-dimethyl-2-thiazyl)-2,5-diphenyl-2H-tetrazolium bromide (MTT; 2 mg/ml) was added and further incubated for 4 hr. The supernatant was discarded and 100 μl of dimethylsulfoxide (DMSO) was added. Absorbance was read at 570 nm with a TecanSunrise ELISA plate reader. The control group consisted of cells without compounds and is referred to as 100% of viable cells. IC50 was determined using Prism software.
All compounds have weak effect on cell cytotoxicity. The predictive utility of cell based cytotoxicity assays to assess the potential in vivo anticancer activity of compounds with selected cancer cell lines is well established in the art and the use of whole cells, instead of isolated protein receptors or enzymes, provides a more reliable determination of activity. See, for example, Paull et al. (J. Nat'l Cancer Inst. 81:1088-1092, 1989); Monks et al. (J. Nat'l Cancer Inst. 83:757-766, 1991); Bandes et al. (J. Nat'l Cancer Inst. 86:770-775, 1994); and Kamate et al. (Int'l J. Cancer 100:571-579, 2002).

PC-3 cells = test: In vitro PC-3 cell migration or invasion assay (EGF-induced); format: cell-based, human; conditions: mitomycin C treated cells, 24 hr
Procedure: An in vitro migration assay was used to assess cell mobility in two dimensions. PC-3 cells were plated on a 12-well plate and grown to confluence in RPMI+10% FBS. A rubber policeman was used to create a denuded area. Confluent cells were quiesced by mitomycin C treatment (0.5 μM) at the concentration used to prevent the confounding issue of cell proliferation and protein synthesis. These cells were also incubated in the presence or absence of […] growth factor (EGF) and compound for 24 hr, then they were photographed.
The effects of EGF and compound V on PC-3 cell migration or invasion in the in vitro migration assay were determined. EGF promotes the migration or invasion of PC-3 cells treated with mitomycin compared to control (i.e., no added EGF).

[2] = tested on: oxazolone-induced delayed-type hypersensitivity (DTH); test: Oxazolone-induced delayed-type hypersensitivity (DTH) in mice; format: in vivo
Procedure: Compounds were tested for their ability to treat oxazolone-induced delayed-type hypersensitivity (DTH) in mice. […] On day 0, day 1, and day 2, mice were treated by intravenous (IV) or oral (PO) administrations of the vehicle (control) or methotrexate (MTX; positive control/IV) or hydrocortisone (positive control/PO) or the compound at concentration lower than or equal to 50 mg/kg or as specified. Mice were challenged with an application of 50 μl of oxazolone on the surface of the right ear (first challenge, day 3; second challenge, day 10). Ear thickness was measured on day 4 to day 7, and on day 11 to 14. Redness and crust formation was also observed. Mice were sacrificed on day 14. TDTH (CD4) cells play an important role in regulating the intensity of the DTH response. Compounds may exert an inhibitory influence on the DTH response through its inhibition of T-cell activation and DNA, RNA, and/or protein synthesis.

[3] = tested on: LPS-induced inflammation in the rat air-pouch model; test: LPS-induced inflammation in rat air-pouch model; format: in vivo, rats; conditions: IV; for PGE2 production induced by LPS / TNFα production induced by LPS / LTB4 production induced by LPS / MCP-1 production induced by LPS: pouch exudate; for LTB4 production induced by LPS: FIG. 20C; for MCP-1 production induced by LPS: FIG. 20D; for white blood cell count: two hours after LPS induction, FIG. 19
Text: LPS-induced inflammation in the rat air-pouch model is believed to mimic the pathological process occurring in joint diseases such as arthritis. This is because the connective tissues formed along the air pouch are similar to those found in chronic joint diseases. LPS-induced inflammation and chronic joint diseases share other features, including markedly elevated PGE2, neutrophil infiltration, cytokine formation, and tissue damage.
An air cavity was produced at day −6 by subcutaneous injection of 20 ml of sterile air into the intrascapular area of the back of male Lewis rats (175 to 200 g). An additional 10 ml of air was injected into the cavity at day −3 to keep the space open. At day 0, compounds were administered intravenously and one hour later lipopolysaccharide (LPS: 2.5 ml of 2 μg/ml in PBS) was injected into the pouch to produce an inflammatory reaction. […] The pouch fluid was collected. The volume of exudates was measured and the number of leukocytes present in the exudates was determined with a Coulter counter. The differential count was determined by Wright-Giemsa staining. PGE2, LTB4, MCP, and TNFα were determined in the pouch exudates by specific ELISAs.

PGE2 production = test: LPS-induced PGE2 production in J774A.1 cells (ELISA); format: cell-based; conditions: Mus musculus, J774.A1, 24 hr, FIG. 11
Procedure: Effect of compounds on PGE2 production was measured by ELISA using J774A.1 cells stimulated by LPS. J774A.1 cells were cultured in the presence or absence of LPS and compound. Cells were cultured for 24 hr at 37° C. and thereafter the supernatants were collected for the determination of the concentration of PGE2 by ELISA as recommended by the manufacturer (GE Healthcare). Data was analyzed in Microsoft Excel software and the concentration of compound which inhibits 50% of PGE2 production (IC50) was calculated using Prism software.

[4] = 24 hr culture, read-out: IC50 of 24-hour culture HUVEC
[5] = 72 hr culture, read-out: IC50 of 72-hour culture HUVEC
[6] = twelve hours after induction, FIG. 21B
[7] = twelve hours post-LPS induction, FIG. 21A
[8] = two hours after induction, FIG. 20A
[9] = two hours after induction, FIG. 20B

## NCCCCCNc1nc(NCCc2ccc(O)cc2)nc(Nc2cccc(F)c2)n1 [Compound I]
TNFα production
  IC50: 29 µM
[1]; [4]
  IC50: 18.8 µM
[1]; [5]
  IC50: 10.1 µM
PC-3 cells; 1 μM to 20 μM
  EGF-induced PC-3 migration or invasion: inhibition of the EGF-induced PC-3 migration or invasion
[2]; IV 25 mg/kg, first challenge of oxazolone
  inflammation (ear thickness) after DTH: significant reduction of the inflammation
[2]; IV 25 mg/kg, second challenge of oxazolone
  inflammation (ear thickness) after DTH: significant reduction of the inflammation

## NCCCCCNc1nc(NCCc2ccc(O)cc2)nc(Nc2ccc(F)cc2)n1 [Compound V]
[3]; [6]
  PGE2 production induced by LPS: significant inhibition
[3]; [7]
  TNFα production induced by LPS: significant inhibition
[3]; [8]
  TNFα production induced by LPS: significant inhibition
[3]; [9]
  PGE2 production induced by LPS: significant inhibition
[3]; two hours after induction
  LTB4 production induced by LPS: weak inhibition
  MCP-1 production induced by LPS: weak inhibition
[3]
  white blood cell count: significant inhibition
TNFα production
  IC50: 13 µM
[1]; [4]
  IC50: 31.8 µM
[1]; [5]
  IC50: > 100 µM
PC-3 cells; 1 μM to 10 μM
  EGF-induced PC-3 migration or invasion: inhibition of the EGF-induced PC-3 migration or invasion
PGE2 production
  IC50: 2 µM
[2]; oral 50 mg/kg, FIG. 15
  inflammation (ear thickness) after DTH: significant reduction of the inflammation

## NCCCCCNc1nc(NCCc2ccc(S(N)(=O)=O)cc2)nc(Nc2cccc(F)c2)n1 [Compound II]
[3]; [6]
  PGE2 production induced by LPS: weak and insignificant increase
[3]; [7]
  TNFα production induced by LPS: no effect
[3]; [8]
  TNFα production induced by LPS: increase the concentration of TNFα
[3]; [9]
  PGE2 production induced by LPS: weak and insignificant inhibition
[3]; two hours after induction
  LTB4 production induced by LPS: weak inhibition
  MCP-1 production induced by LPS: no influence
[3]
  white blood cell count: significant inhibition
[1]; [4]
  IC50: 92.2 µM
[1]; [5]
  IC50: 38.9 µM
[2]; IV 5 mg/kg, first challenge of oxazolone
  inflammation (ear thickness) after DTH: significant reduction of the inflammation
[2]; IV 5 mg/kg, second challenge of oxazolone
  inflammation (ear thickness) after DTH: significant reduction of the inflammation
